This is an account of results in patent US8557875B2, “Gene transfer agent composition containing polyamidoamine dendron” (Public University Corporation Osaka Prefecture University, priority 2009, dated 2013).

Structures are written as SMILES.

What all share (type): cell-based, human
For data set [1], the system named is NHDF-ad cells. Briefly: Multiple gene transfer, GFP expression (Example 7). Particulars: transfer on Day 1, 3, 5, observed Day 7. As to the method: pEGFP-C1 expressing a green fluorescent protein was used as a gene transfer plasmid, and NHDF-ad cells, which were normal […] cells derived from adult humans also used for production of iPS cells, were used as target cells. Lipoplexes were individually prepared using DL-U2. Then, gene transfer was performed multiple times.
(NHDF-ad cells: 2×10^4 cells/well·DMEM+10% FBS (Pe/St) 500 μl)
(i) A 20 mM Tris-HCl (pH 7.4) buffer was dispensed into tubes at 71 μl (for NP ratio=6).
(ii) 2.0 μg of plasmid DNA (pCAG-GFP) were added to each of the two tubes prepared in step (i) at 4 μl (2.0 μg), and the contents were stirred.
(iii) To the prepared plasmid DNA solution was added 75 μl of a DL-U2 liposome solution (N/P ratio=6), and the whole was thoroughly mixed using a vortex and incubated at room temperature for 30 minutes.
(iv) 50 μl of an Opti-MEM(R) I Reduced-Serum Medium was further added, and the whole was thoroughly mixed and allowed to stand at room temperature for 5 minutes.
(v) 100 μl per well of the DL-plasmid DNA complex solutions was individually added to one well, and the contents were mixed by shaking the plate so as to be homogeneous.
(§1) (vi) The cells were incubated at 37° C. in 5% CO2 for 4 hours, and the growth medium was replaced.
For the cells subjected to gene transfer operations on Day 1, the same gene transfer was performed on Day 3 and Day 5 as well.

Data set [2] deals with NHDF-ad cells. Briefly: Flow cytometry of GFP fluorescence in treated cells. For orientation: In flow cytometry, cells or beads pass a laser one at a time.
Data set [3] deals with NHDF-ad cells. Briefly: Toxicity evaluation after multiple gene transfer, WST-8 kit (Example 7). Particulars: transfer on Day 1, 3, 5, WST-8 on Day 7. As to the method:
(NHDF-ad cells: 3.5×10^3 cells/well·DMEM+10% FBS (Pe/St) 70 μl)
(i) A 20 mM Tris-HCl (pH 7.4) buffer was dispensed into tubes at 35.5 μl (for NP ratio=6).
(ii) 1.0 μg of plasmid DNA (pCAG-GFP) was added to each of the two tubes prepared in step (i) at 2 μl (1.0 μg), and the contents were stirred.
(iii) To the prepared plasmid DNA solution was added 37.5 μl of a DL-U2 liposome solution (N/P ratio=6), and the whole was thoroughly mixed using a vortex and incubated at room temperature for 30 minutes.
(iv) 25 μl of an Opti-MEM(R) I Reduced-Serum Medium was further added, and the whole was thoroughly mixed and allowed to stand at room temperature for 5 minutes.
7 μl and 14 μl per well of the DL-plasmid DNA complex solutions was individually added to three wells, and the contents were mixed by shaking the plate so as to be homogeneous.
as §1
For the cells subjected to gene transfer operations on Day 1, the same gene transfer was performed on Day 3 and Day 5, as well.
Day 7 Toxicity evaluation was performed according to the protocol of a WST-8 kit (Kishida Chemical Co., Ltd.).
(a well to which no lipoplex solution was added was defined as 100%) […]

For data set [4], the system named is NHDF-ad cells. As to the kind of experiment: GFP expression after gene transfer with lipoplexes (Example 4). Particulars: GFP-expression plasmid. As to the method:
A solvent was removed from each of chloroform solutions (1 mg/ml) of polyamidoamine dendrons (DL-G1 and DL-G1-U2) using a rotary evaporator to form 111.5 μg of lipid thin films. The thin films were dried in vacuo for 2 hours. Then, […] of phosphate buffered saline (PBS) were added. The mixtures were further sonicated for 2 minutes using a bath-type ultrasonicator to give 160 μl of lipid dispersion liquids. In addition, a solution (20 μg/ml, 160 μl) prepared by dissolving plasmid DNA in a 20 mM Tris-HCl buffer was added to each of the lipid dispersion liquids so as to obtain different N/P ratios. Then, the liquids were incubated at room temperature for 30 minutes to obtain lipoplexes.
pEGFP-C1 expressing a green fluorescent protein was used as a gene transfer plasmid, and NHDF-ad cells were used as target cells. Lipoplexes were prepared using, individually, DL-U2 and DL-G1. Then, gene transfer was performed.
NHDF-ad cells were seeded in a 24-well plate.
(NHDF-ad cells: 2.5×10^4 cells/well·DMEM+10% FBS (Pe/St) 500 μl)
(i) A 20 mM Tris-HCl (pH 7.4) buffer was dispensed into two tubes at, individually, 56.3 μl (for NP ratio=3) and 37.5 μl (for NP ratio=6).
(ii) 1.0 μg of plasmid DNA (pCAG-GFP) was added to each of the two tubes prepared in step (i) at 2 μl (1.0 μg), and the contents were stirred. […]

Regarding `CCCCCCCC/C=C\CCCCCCCCN(CCCCCCCC/C=C\CCCCCCCC)CCC(=O)NCCN(CCC(=O)NCCN)CCC(=O)NCCN` (racemic) [DL-G1-U2], the “gene transfer activity / gene expression after multiple gene transfer” value with NHDF-ad cells [1] is “allowed the gene to be expressed most efficiently”. Further, the “fluorescence intensity of GFP expressed in the cells compared with DL-G1” value with NHDF-ad cells [2] is on record as “about ten times higher”. Moreover, the “toxicity after multiple gene transfer” value with NHDF-ad cells [3] is “lowest toxicity”. Besides, the “gene transfer into NHDF-ad cells” value in the data set with NHDF-ad cells [4] is “allowed the gene to be transferred”.
